Data as given in US20200354327A1, “COMPOUND HAVING STAT3 INHIBITORY ACTIVITY AND USE THEREOF” (CYTUS H&B CO., LTD., priority 2017, published 2020).

What follows are compounds tested against STAT3 (Homo sapiens, UniProt P40763) (assay: Western blot of the 46 Table 1 compounds in Hodgkin lymphoma cell lines L540 and HDLM-2). Conditions: L540 and HDLM-2.
Format: cell-based
Parameters: endogenous in cells; host or cells: L540, HDLM-2, U87-MG, MDA-MB-231, further human glioblastoma and breast cancer lines
Procedure: The human cancer cell lines used in the experiment were U87-MG (human malignant glioblastoma) and MDA-MB-231 (human malignant breast cancer) cell lines, and various kinds of human-derived blood and solid cancer cells including these human cancer cell lines were cultured as previously described (Jung J E, et al. FASEB J. 19, 1296-1298 (2005)). The human Hodgkin lymphoma cancer cell lines L540 and HLDM-2 used in the experiment were obtained from the German Collection of Microorganism and Cell Cultures (DSMZ, Germany) and cultured using RPMI 1640 medium containing 20% FBS in a 5% CO2 incubator at a temperature of 37° C.
Western blot analysis was performed (Jung J E, et al. FASEB J. 19, 1296-1298 (2005)). The cells were washed two times with PBS and suspended in the lysate (50 mM Tris-HCl, pH 7.4, 350 mM NaCl, 1% Triton X-100, 0.5% Nonidet P-40, 10% glycerol, 0.1% SDS, 1 mM EDTA, 1 mM EGTA, 1 mM Na3VO4, 1 mM PMSF, protease and phosphorylation inhibitor) and the cell membrane and nuclear membrane were crushed to lyse the cells. The insoluble protein fraction was removed by centrifugation, and the supernatant was mixed with SDS electrophoresis buffer and electrophoresis (SDS-PAGE) was performed to detect the protein with the desired antibody and to confirm the protein expression level.

STAT3, sequence (P40763 whole entry): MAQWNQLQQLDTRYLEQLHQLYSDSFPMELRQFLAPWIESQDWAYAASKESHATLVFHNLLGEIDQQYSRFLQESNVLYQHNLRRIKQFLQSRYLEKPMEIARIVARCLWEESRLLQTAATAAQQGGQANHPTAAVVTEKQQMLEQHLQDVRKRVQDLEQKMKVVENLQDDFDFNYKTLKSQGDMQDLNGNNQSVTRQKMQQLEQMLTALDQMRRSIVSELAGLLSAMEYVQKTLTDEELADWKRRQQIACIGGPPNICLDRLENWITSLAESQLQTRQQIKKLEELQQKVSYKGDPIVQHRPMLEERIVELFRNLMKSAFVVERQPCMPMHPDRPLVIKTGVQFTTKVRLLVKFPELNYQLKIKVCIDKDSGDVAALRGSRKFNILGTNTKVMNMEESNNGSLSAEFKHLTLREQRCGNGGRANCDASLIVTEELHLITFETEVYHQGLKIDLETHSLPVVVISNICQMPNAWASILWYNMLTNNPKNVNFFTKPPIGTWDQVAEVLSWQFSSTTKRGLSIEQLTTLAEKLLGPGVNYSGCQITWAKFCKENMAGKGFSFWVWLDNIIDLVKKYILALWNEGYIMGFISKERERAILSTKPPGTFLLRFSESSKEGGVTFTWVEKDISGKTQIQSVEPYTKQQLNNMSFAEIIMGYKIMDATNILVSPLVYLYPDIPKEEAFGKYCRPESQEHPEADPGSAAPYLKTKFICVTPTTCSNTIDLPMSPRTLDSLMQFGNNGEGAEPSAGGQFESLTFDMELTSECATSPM

SMILES	STAT3 inhibitory efficacy, first screening
O=C(Nc1cccnc1)c1cccc(NS(=O)(=O)c2ccccc2)c1 [compound 43, 3-[(phenylsulfonyl)amino]-N-3-pyridinylbenzamide]	judged to exert superior STAT3 inhibitory efficacy
Cc1ccc(S(=O)(=O)Nc2cccc(C(=O)Nc3cccnc3)c2)cc1 [compound 46, 3-{[(4-methylphenyl)sulfonyl]amino}-N-3-pyridinylbenzamide]	judged to exert superior STAT3 inhibitory efficacy
O=C(Nc1nc(O)nc(C=Cc2ccccc2)n1)NS(=O)(=O)c1ccccc1Cl [compound 9, 2-chloro-N-({[4-hydroxy-6-(2-phenylvinyl)-l,3,5-triazin-2-yl]amino]carbonyl)benzenesulfonamide]	judged to exert superior STAT3 inhibitory efficacy
O=C(O)[C@@H]1CCCN1S(=O)(=O)c1ccc2[nH]c(=O)c(=O)[nH]c2c1 [compound 35, l-[(2,3-dioxo-l,2,3,4-tetrahydro-6-quinoxalinyl)sulfonyl]proline]	judged to exert superior STAT3 inhibitory efficacy
O=C(Nc1ccc(C(=O)N2CCNC2=O)cc1)c1ccccc1 [compound 22, N-{4-[(2-oxo-l-imidazolidinyl)carbonyl]phenyl}benzamide]	judged to exert superior STAT3 inhibitory efficacy
CC1CN(Cc2nc3c([nH]2)c(=O)[nH]c(=O)n3C)CC(C)O1 (stereo not drawn) [compound 16, 8-[(2,6-dimethyl-4-morpholinyl)methyl]-3-methyl-3,7-dihydro-lH-purine-2,6-dione]	judged to exert superior STAT3 inhibitory efficacy
OCCCNc1nc(Nc2cccc(O)c2)nc2ccccc12 [compound 37, 3-({4-[(3-hydroxypropyl)amino]-2-quinazolinyl}amino)phenol]	judged to exert superior STAT3 inhibitory efficacy
COc1ccccc1C(=O)Nc1ccc(C(=O)N2CCNC2=O)cc1 [compound 41, 2-methoxy-N-{4-[(2-oxo-l-imidazolidinyl)carbonyl]phenyl}benzamide]	judged to exert superior STAT3 inhibitory efficacy
Cc1ccc(S(=O)(=O)NCCc2nc3ccccc3[nH]2)cc1 [compound 31, N-[2-(1H-benzimidazol-2-yl)ethyl]-4-methylbenzenesulfonamide]	judged to exert superior STAT3 inhibitory efficacy
Cc1ccccc1NC(=O)c1cccc(NS(C)(=O)=O)c1 [compound 28, N-(2-methylphenyl)-3-((methylsulfonyl)amino]benzamide]	judged to exert superior STAT3 inhibitory efficacy
CCc1ccc(OC)c(S(=O)(=O)Nc2cccc(O)c2)c1 [compound 36, 5-ethyl-N-(3-hydroxyphenyl)-2-methoxybenzenesulfonamide]	judged to exert superior STAT3 inhibitory efficacy
O=C(NCC1CCCO1)C1CC(=O)N(c2ccc(O)cc2)C1 (stereo not drawn) [compound 45, 1-(4-hydroxyphenyl)-5-oxo-N-(tetrahydro-2-furanylmethyl)-3-pyrrolidinecarboxamide]	judged to exert superior STAT3 inhibitory efficacy
NC(=O)c1cc(S(=O)(=O)Nc2ccc(O)cc2)cs1 [compound 24, 4-{[(4-hydroxyphenyl)amino]sulfonyl}-2-thiophenecarboxamide]	judged to exert superior STAT3 inhibitory efficacy
O=C1CN(C(=O)C=Cc2ccccc2)CCN1 [compound 27, 4-cinnamoyl-2-piperazinone]	judged to exert superior STAT3 inhibitory efficacy
O=S(=O)(NCc1nc2ccccc2[nH]1)c1ccc(Cl)cc1 [compound 14, N-(1H-benzimidazol-2-ylmethyl)-4-chlorobenzenesulfonamide]	judged to exert superior STAT3 inhibitory efficacy
O=S(=O)(NCCc1nc2ccccc2[nH]1)c1ccccc1 [compound 4, N-[2-(lH-benzimidazol-2-yl)ethyl]benzenesulfonamide]	judged to exert superior STAT3 inhibitory efficacy
Cl.Cl.NCCc1nc2ccccc2c(=O)[nH]1.O [compound 1, 2-(2-aminoethyl)-4(3H)-quinazolinone dihydrochloride hydrate]	judged to exert superior STAT3 inhibitory efficacy
CS(=O)(=O)Nc1cccc(C(=O)NCc2ccncc2)c1 [compound 33, 3-[(methylsulfonyl)amino]-N-(4-pyridinylmethyl)benzamide]	judged to exert superior STAT3 inhibitory efficacy
O=C(COc1ccc(Cl)cc1S(=O)(=O)NC1CC1)N1CCOCC1 [compound 23, 5-chloro-N-cyclopropyl-2-[2-(4-morpholinyl)-2-oxoethoxy]benzenesulfonamide]	judged to exert superior STAT3 inhibitory efficacy
O=S(=O)(NCc1nc2ccccc2[nH]1)c1ccc(Cl)c(Cl)c1 [compound 20, N-(lH-benzimidazol-2-ylmethyl)-3,4-dichlorobenzenesulfonamide]	judged to exert superior STAT3 inhibitory efficacy

Same assay, conditions: L540 and HDLM-2, 50 μM

SMILES	STAT3 inhibitory efficacy, secondary screening
Cc1ccc(S(=O)(=O)Nc2cccc(C(=O)Nc3cccnc3)c2)cc1 [compound 46, 3-{[(4-methylphenyl)sulfonyl]amino}-N-3-pyridinylbenzamide]	judged to exert superior STAT3 inhibitory efficacy
OCCCNc1nc(Nc2cccc(O)c2)nc2ccccc12 [compound 37, 3-({4-[(3-hydroxypropyl)amino]-2-quinazolinyl}amino)phenol]	judged to exert superior STAT3 inhibitory efficacy

Same assay, conditions: L540 and HDLM-2, various concentrations

SMILES	phosphorylation of STAT tyrosine 705
Cc1ccc(S(=O)(=O)Nc2cccc(C(=O)Nc3cccnc3)c2)cc1 [compound 46, 3-{[(4-methylphenyl)sulfonyl]amino}-N-3-pyridinylbenzamide]	significantly inhibited the phosphorylation of STATdml tyrosine 705 in a concentration-dependent manner
OCCCNc1nc(Nc2cccc(O)c2)nc2ccccc12 [compound 37, 3-({4-[(3-hydroxypropyl)amino]-2-quinazolinyl}amino)phenol]	significantly inhibited the phosphorylation of STATdml tyrosine 705 in a concentration-dependent manner
